In test [1] the target is T1, Type-2 angiotensin II receptor (Rattus norvegicus, UniProt P35351).
T1 sequence (P35351 whole entry): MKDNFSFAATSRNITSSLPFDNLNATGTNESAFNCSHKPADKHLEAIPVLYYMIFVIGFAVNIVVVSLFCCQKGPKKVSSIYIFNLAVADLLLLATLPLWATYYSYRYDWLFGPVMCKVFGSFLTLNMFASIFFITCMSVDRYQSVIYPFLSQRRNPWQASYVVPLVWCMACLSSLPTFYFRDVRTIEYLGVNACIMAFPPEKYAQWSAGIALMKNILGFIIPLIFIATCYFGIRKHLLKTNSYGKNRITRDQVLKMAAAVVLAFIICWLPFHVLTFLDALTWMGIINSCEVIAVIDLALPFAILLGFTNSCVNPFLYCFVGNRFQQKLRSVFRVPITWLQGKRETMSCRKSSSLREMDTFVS
Put plainly: In vitro binding affinity determined by its ability to displace the specific binding ligand [125I]-Sar1, Ile8-AII from AT2 receptor in rat midbrain membranes. It counts as cell membranes, Membrane.

Test [2] has as its target T2, Type-1 angiotensin II receptor (Oryctolagus cuniculus, UniProt P34976).
T2 sequence (P34976 whole entry): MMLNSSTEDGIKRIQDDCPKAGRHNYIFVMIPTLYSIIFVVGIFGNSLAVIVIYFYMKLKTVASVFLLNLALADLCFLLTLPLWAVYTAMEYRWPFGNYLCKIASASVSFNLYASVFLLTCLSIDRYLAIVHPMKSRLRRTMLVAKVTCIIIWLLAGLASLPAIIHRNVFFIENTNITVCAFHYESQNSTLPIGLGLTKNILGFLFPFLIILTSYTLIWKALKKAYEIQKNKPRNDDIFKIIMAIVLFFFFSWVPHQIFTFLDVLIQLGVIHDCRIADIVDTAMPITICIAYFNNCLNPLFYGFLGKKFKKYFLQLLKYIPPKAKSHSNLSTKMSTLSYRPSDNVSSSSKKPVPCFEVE
Put plainly: In vitro binding affinity determined by its ability to displace the specific binding ligand [125I]-Sar1, Ile8-AII from Angiotensin II receptor, type 1 in rabbit aorta membranes. It counts as cell membranes, Membrane.

Test [3] concerns Rattus norvegicus. Put plainly: Effective dose in rat after peroral administration; Range is (0.001 - 0.167). It counts as functional. The following applies: po.
Test [4] relates to Rattus norvegicus. Put plainly: Inhibition on AII-induced pressor responses in rats at a dose of 0.3 upon iv administration at duration of >6 hr. It counts as functional.
Test [5] deals with Canis familiaris. Put plainly: Inhibition on AII-induced pressor responses in Beagle dogs at a dose of 0.3 upon iv administration at duration of >6 hr. The format is functional, Canis lupus familiaris.
The subject of test [6] is Rattus norvegicus. Put plainly: Inhibition on AII-induced pressor responses in rats at a dose of 0.3 upon po administration at duration of >6 hr. The format is functional.
The subject of test [7] is Rattus norvegicus. Put plainly: Effective dose in rat after intravenous administration; Range is (0.062 - 0.076). It counts as functional.
In test [8] the test system is Canis familiaris. Put plainly: Effective dose in Beagle dog after intravenous administration; Range is (0.025 - 0.029). It counts as functional. To be noted: Canis lupus familiaris.
For test [9], the system named is Canis familiaris. Put plainly: Inhibitory activity against AII-induced pressor responses in Beagle dogs at a dose of 1.0 upon po administration at duration of >6 hr. The format is functional, Canis lupus familiaris.
Test [10] has as its system Rattus norvegicus. Put plainly: Inhibitory activity against AII-induced pressor responses in rats at a dose of 0.3 upon po administration at duration of >6 hr. The format is functional.
Test [11] concerns Canis familiaris. Put plainly: Effective dose in Beagle dog after peroral administration; Range is (0.52 - 0.64). It counts as functional. The following applies: Canis lupus familiaris, po.
Test [12] relates to Rattus norvegicus. Put plainly: Inhibitory activity against AII-induced pressor responses in rats at a dose of 0.3 upon iv administration at duration of >6 hr. The format is functional.
Test [13] deals with Angiotensin II receptor (Homo sapiens) (UniProt P30556+P50052). Put plainly: Ratio of IC50 of AT2/AT1 receptors. The format is protein assay.
The subject of test [14] is Rattus norvegicus. Put plainly: Effective dose in rat after peroral administration; Range is (0.25 - 0.31). It counts as functional. To be noted: po.
In test [15] the test system is Rattus norvegicus. Put plainly: Effective dose in rat after intravenous administration; Range is (0.12 - 0.15). The format is functional.
Test [16] concerns Canis familiaris. Put plainly: Inhibitory activity against AII-induced pressor responses in Beagle dogs at a dose of 0.3 upon iv administration at duration of >6 hr. The format is functional, Canis lupus familiaris.

For the compound `CCc1nc2c(C)cc(C)nc2n1Cc1ccc(-c2ccccc2-c2nnn[nH]2)cc1` [L-158809], in test [1], the IC50 – broadly, the midpoint of a concentration-inhibition curve – is over 10000 nM.

For `CCCCOC(=O)NS(=O)(=O)c1ccccc1-c1ccc(Cn2c(CCC)nc3c(C)c(NC(=O)CCC)cnc32)cc1`, the IC50 in test [2] stood at 0.51 nM; in [1] it was 5.6 nM.

Consider `CCCC(=O)Nc1c(C)nc2c(nc(CCC)n2Cc2ccc(-c3ccccc3S(=O)(=O)NC(=O)CCC3CCCC3)cc2)c1C`, for which the IC50 in test [2] was 0.26 nM; in test [1], 0.25 nM.

For `CCCCc1nc2cc(NC(=O)N(c3ccccc3)c3ccccc3)c(C)nc2n1Cc1ccc(-c2ccccc2-c2nn[nH]n2)cc1`, the IC50 in test [2] worked out at 0.6 nM; in test [1], 510 nM.

In [2], `CCCCCN(C(=O)c1ccccc1)c1ccc2nc(CCC)n(Cc3ccc(-c4ccccc4-c4nn[nH]n4)cc3)c(=O)c2c1` showed an IC50 of 1 nM.

As for `CCCCOC(=O)NS(=O)(=O)c1ccccc1-c1ccc(Cn2c(CCCC)nc3cc(NC(=O)CCCC)c(C)nc32)cc1`, the ED50 (as a rule, the midpoint of the dose-response relation) with Rattus norvegicus [3] was 0.014 mg/kg; with Rattus norvegicus [7] it was 0.069 mg/kg. In addition, the Max inhibition in the test on Rattus norvegicus [4] came out at 82%; with Canis familiaris [5], 100%; with Rattus norvegicus [6], 86%.

As to `CCCCCC(=O)NS(=O)(=O)c1ccccc1-c1ccc(Cn2c(CCCC)nc3cc(NC(=O)CCCC)cnc32)cc1`, the IC50 in [2] is 0.37 nM; in [1], 2.7 nM.

`CCCCC(=O)Nc1cc2nc(CCCC)n(Cc3ccc(-c4ccccc4S(=O)(=O)NC(=O)CCC4CCCC4)cc3)c2nc1C`: the figures for the IC50 in test [2] and in test [1] were 0.1 nM and 0.31 nM, respectively.

As to `CCc1nc2c(C)cc(C)nc2n1Cc1ccc(-c2ccccc2S(=O)(=O)NC(=O)CCC2CCCC2)cc1`, the IC50 in test [2] was found to be 0.1 nM; in [1], 33 nM.

As for `CCCC(=O)Nc1cnc2c(nc(CCC)n2Cc2ccc(-c3ccccc3S(=O)(=O)NC(=O)OCc3ccccc3)cc2)c1C`, the ED50 with Canis familiaris [8] is 0.027 mg/kg; in the test on Canis familiaris [11], 0.58 mg/kg; with Rattus norvegicus [14], 0.28 mg/kg; in the test with Rattus norvegicus [15] it was 0.13 mg/kg. The IC50 in test [2] was 0.33 nM; in test [1] it was 0.94 nM. Also, the Max inhibition worked out at 76% with Canis familiaris [9], 58% in the test with Rattus norvegicus [10], 85% in the test with Rattus norvegicus [12] and 100% with Canis familiaris [16]. Also, the Ratio in test [13] stood at 2.8.

The record behind these values is ChEMBL document CHEMBL1153653, “Imidazo[4,5-b]pyridine-based AT1 / AT2 angiotensin II receptor antagonists” (Bioorg Med Chem Lett, 1994).
